Results reported in publication PMC5330855 (Biochemistry, 2017).

Assays:
hhIYD [1] = molecular target: T1, hhIYD (Haliscomenobacter hydrossis, UniProt F4KU78); test: Quenching of FMNox fluorescence, ligand binding to hhIYD
T1 sequence (F4KU78 1-222): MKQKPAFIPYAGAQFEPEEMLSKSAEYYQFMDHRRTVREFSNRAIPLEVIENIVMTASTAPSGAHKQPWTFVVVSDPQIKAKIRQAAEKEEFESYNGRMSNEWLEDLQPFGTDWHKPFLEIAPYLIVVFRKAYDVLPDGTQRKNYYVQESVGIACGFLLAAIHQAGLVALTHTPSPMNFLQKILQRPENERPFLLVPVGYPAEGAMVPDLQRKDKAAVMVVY

human IYD = molecular target: T2, human IYD (Homo sapiens, UniProt Q6PHW0); test: Catalytic deiodination by human IYD; type: biochemical
T2 sequence (Q6PHW0 with tags, fused parts or gaps): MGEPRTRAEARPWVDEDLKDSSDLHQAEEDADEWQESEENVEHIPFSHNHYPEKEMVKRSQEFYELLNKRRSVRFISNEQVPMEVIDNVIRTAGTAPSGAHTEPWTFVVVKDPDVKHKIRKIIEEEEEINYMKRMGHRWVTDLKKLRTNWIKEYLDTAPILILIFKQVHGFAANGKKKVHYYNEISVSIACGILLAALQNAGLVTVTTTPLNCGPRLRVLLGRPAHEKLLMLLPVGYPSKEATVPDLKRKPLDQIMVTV

hhIYD [2] = molecular target: T1, hhIYD; test: Anaerobic reduction of hhIYD by xanthine and xanthine oxidase; type: biochemical; conditions: hhIYD 20 μM; F-Tyr 500 μM or 2IP 800 μM
[3] = Intrinsic reactivity of free cofactor FMNhq with 2IP; type: biochemical; conditions: FMN 2.5 μM, 2IP 5 mM, dithionite 0.5% w/v, 2 h incubation; threshold ~ 3 nmol
hhIYD [4] = molecular target: T1, hhIYD; type: biochemical
IYD = conditions: cited from earlier work

With `Oc1ccccc1I` [2IP, 2-iodophenol] as the compound, how does the “increase in affinity for hhIYD relative to human IYD” value (hhIYD [1]; hhIYD relative to human IYD) read?
The value was ~ 20 fold.

What about the “Km greater than that for I-Tyr” value (human IYD) of the same compound?
The value was 560 fold.

What about the “kcat less than that for I-Tyr” value (human IYD) of the same compound?
The value was 26 fold.

And the “accumulation of the FMNsq intermediate during reduction” value (hhIYD [2])?
Its value is “did not detectably promote an accumulation of the FMNsq intermediate”.

What about the “phenol formed with free FMN” value [3] of the same compound?
The value was “no phenol was detected”.

What does the source list for `N#Cc1ccc(O)c(I)c1` [2IPCN, 4-cyano-2-iodophenol]?
Kd lower than that of 2IP (hhIYD [1]; hhIYD): ~50 fold; deiodination by the bacterial deiodinase (hhIYD [4]; hhIYD): not detectably deiodinated

Which results are given for `N[C@@H](Cc1ccc(O)c(I)c1)C(=O)O` [I-Tyr, 3-iodo-L-tyrosine, reference compound]?
weaker affinity for hhIYD than human IYD (hhIYD [1]; hhIYD relative to human IYD): ~ 90 fold; Km greater than Kd (human IYD): > 80 fold; kcat/Km larger than that measured for I2-Tyr (human IYD; I2-Tyr by 125I-iodide release assay): 50%; increase in kcat/Km, hhIYD relative to human IYD (hhIYD [4]; hhIYD versus human IYD): 16 fold

With `N[C@@H](Cc1ccc(O)c(F)c1)C(=O)O` [F-Tyr, 3-fluoro-L-tyrosine, reference compound] as the compound, how does the Kd (hhIYD [1]) read?
Its Kd is 46 ± 2 µM.

Which “dehalogenation by IYD” value (IYD) does the source give for “O-(4-hydroxy-3,5-diiodophenoxy)-3,5-diiodo-L-tyrosine [Thyroxine]” here?
Its value is “not dehalogenated by IYD”.

Which “Km larger than that for 2IP” value (hhIYD [4]; hhIYD) does the source give for `O=C(O)c1ccc(O)c(I)c1` [2IPCOOH, 4-hydroxy-3-iodobenzoic acid] here?
Its value is 75%.

Which “Kd larger than that for 2IP” value (hhIYD [1]; hhIYD) does the source give for `Nc1ccc(O)c(I)c1` [4A2IP, 4-amino-2-iodophenol] here?
The value was 40%.

What about the “kcat/Km greater than the parent 2IP” value (hhIYD [4]; hhIYD) of the same compound?
The value was about 6 fold.
